This is an account of results in ChEMBL document CHEMBL1130984, “Substrate specificity of human prolyl-4-hydroxylase” (Bioorg Med Chem Lett, 1998).

Experiment [1] addresses T1, Transmembrane prolyl 4-hydroxylase (Homo sapiens) (UniProt Q9NXG6).
T1 sequence (whole entry): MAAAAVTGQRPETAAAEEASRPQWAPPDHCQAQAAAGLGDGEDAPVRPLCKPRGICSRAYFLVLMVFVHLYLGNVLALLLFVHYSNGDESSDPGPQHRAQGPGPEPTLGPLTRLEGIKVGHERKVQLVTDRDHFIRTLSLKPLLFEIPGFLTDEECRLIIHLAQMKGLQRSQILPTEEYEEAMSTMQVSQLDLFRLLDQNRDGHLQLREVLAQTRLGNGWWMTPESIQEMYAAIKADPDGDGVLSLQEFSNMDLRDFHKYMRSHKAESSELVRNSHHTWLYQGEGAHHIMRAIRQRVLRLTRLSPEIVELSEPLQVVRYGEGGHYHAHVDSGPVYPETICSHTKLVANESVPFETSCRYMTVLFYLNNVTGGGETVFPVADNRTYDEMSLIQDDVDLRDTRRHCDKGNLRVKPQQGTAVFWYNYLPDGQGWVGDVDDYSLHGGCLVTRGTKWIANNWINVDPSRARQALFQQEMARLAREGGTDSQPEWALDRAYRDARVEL
Kind of experiment: Compound was tested for substrate specificity of human proline-4-hydroxylase; Not a substrate.

Experiment [2] addresses T2, Transmembrane prolyl 4-hydroxylase (Homo sapiens, UniProt Q9NXG6).
T2 sequence (Q9NXG6 whole entry): T1 sequence (whole entry)
The experiment is described as follows: Compound was tested for inhibition of the enzyme human proline-4-hydroxylase; No inhibition.

Experiment [3] addresses T1, Transmembrane prolyl 4-hydroxylase (Homo sapiens). The experiment is described as follows: Compound was tested for substrate specificity of human proline-4-hydroxylase; Substrate.

With `CCOC(=O)CNC(=O)[C@H]1N(C(=O)[C@H](Cc2ccccc2)NC(=O)CNC(=O)OCc2ccccc2)CCC12CC2`, the Activity result in experiment [1] was “Not a substrate”. Further, in experiment [2], the IC50 entry is “Not Active”.
For `CCOC(=O)CNC(=O)[C@@H]1CC(C)CN1C(=O)[C@H](Cc1ccccc1)NC(=O)CNC(=O)OCc1ccccc1` (stereo partly specified) the same measures were “Not a substrate” and “Not Active”.
For the compound `CCOC(=O)CNC(=O)[C@@H]1C(Cl)CCN1C(=O)[C@H](Cc1ccccc1)NC(=O)CNC(=O)OCc1ccccc1` (stereo partly specified), the Activity result in experiment [1] is “Not a substrate”. For the same compound, the IC50 result in experiment [2] is on record as “Not Active”.
Consider `CCOC(=O)CNC(=O)[C@@H]1C(C)CCN1C(=O)[C@H](Cc1ccccc1)NC(=O)CNC(=O)OCc1ccccc1` (stereo partly specified), for which the Activity entry in experiment [1] was “Not a substrate”. The IC50 result in experiment [2] is listed as “Not Active”.
As to `CCOC(=O)CNC(=O)[C@@H]1C(F)CCN1C(=O)[C@H](Cc1ccccc1)NC(=O)CNC(=O)OCc1ccccc1` (stereo partly specified), in experiment [3], the Activity result is “Substrate”.
As for `CCOC(=O)CNC(=O)[C@@H]1C(Br)CCN1C(=O)[C@H](Cc1ccccc1)NC(=O)CNC(=O)OCc1ccccc1` (stereo partly specified), the Activity result in experiment [1] was “Not a substrate”. Besides, the IC50 entry in experiment [2] is “Not Active”.
